Reference: PMC10611619, “[^99mTc]Tc-PentixaTec: development, extensive pre-clinical evaluation, and first human experience” (European Journal of Nuclear Medicine and Molecular Imaging, 2023)
Like-named read-outs stand apart in the source and are kept apart here. Where a SMILES comes first, the peptide text is derived from it. Side-chain parts run from the residue outwards. [ ]: non-standard residue; d: D form. The star is where a group is joined. 2Nal = N[C@@H](Cc1ccc2ccccc2c1)C(=O)O; dNMeOrn = CN[C@H](CCCN)C(=O)O; 4Abz = Nc1ccc(C(=O)O)cc1; X1 = NCCNCC(CNCCN)C(=O)*; dDap = NC[C@@H](N)C(=O)O

How the values were obtained:
[1] = Blood clearance / excretion in patients; assay type: in vivo, human; settings: for half-life: human, whole blood, iv
Description: [^99mTc]Tc-PentixaTec scans were performed using a dual head gamma camera (GE Discovery NM/CT 670 Pro, Milwaukee, WI, USA). In the four patients undergoing dosimetry, planar dynamic whole body scans were performed 5 min, 30 min, and 1 h with a bed speed of 30 cm/min; 2 h, 3 h, and 5 h with a speed of 12 cm/min; and 24 h with a speed of 5 cm/min after tracer injection. SPECT/CT imaging was performed following the 3-h planar imaging with 60 views and a frame duration of 8 s. Attenuation maps were generated on the basis of low-dose CT.
Venous blood samples (2.7 mL) were drawn directly before each planar scan. A cross-calibrated well-counter (Digibase, Ametek, Oak Ridge, TN, USA) was used to measure activity in the blood samples, resulting in the average activity per mL blood. Plasma half-life was calculated using NUKFIT software.

[2] = In vitro stability in various media (radio-TLC); assay type: in vitro ADME; settings: for percentage of intact tracer: original product formulation
Description: Solutions were incubated for up to 13 h at room temperature. Sequential radio-thin layer chromatography was performed after 20 min, 40 min, 100 min, 2.6 h, 3.6 h, 4.4 h, and 13 h of incubation, and the amount of intact ligand was analyzed by integration of the TLC chromatogram.

[3] = Safety monitoring in patients (adverse events); assay type: in vivo, human
Description: Five patients (age, 48–72 y, median 66 y) with a history of hematological malignancy underwent imaging after intravenous injection of a median of 558 MBq (range, 417–601) [^99mTc]Tc-PentixaTec. […] Safety was assessed by monitoring adverse events after administration of [^99mTc]PentixaTec.

[4] = tested on: Jurkat xenograft bearing CB17/SCID mice; assay: Biodistribution in Jurkat xenograft-bearing mice, 1 h p.i.; assay type: in vivo; settings: n = 5, mean ± SD
Description: Female CB17/SCID mice bearing subcutaneous Jurkat human T cell lymphoma xenografts (for more detailed information, see supplemental material) were injected intravenously with the respective ^99mTc-labeled tracer (5–20 MBq, 0.1–0.2 nmol/mouse) under isofluorane anesthesia and were sacrificed at 1 h post-injection (p.i.). The organs of interest were dissected, and the activity concentration in weighed tissue samples was quantified using a WIZARD^2® 2480 automatic γ-Counter from Perkin Elmer (Waltham MA, USA). Biodistribution data are given in %iD/g and represent means ± SD (groups of n = 4–5 animals). Statistical analysis (t-test) was performed using GraphPad Prism.
To establish tumor xenografts, Jurkat cells (2 – 3x10^7 cells) were suspended in a mixture of RPMI 1640 medium and Matrigel (1/1; v/v) (BD Biosciences, Heidelberg, Germany), and injected subcutaneously into the right shoulder of 6–10 weeks old CB17-SCID mice from either Charles River GmbH (Sulzfeld, Germany) or the in-house mouse breeding facility. As soon as tumors had grown to a diameter of 5–8 mm (4 – 10 weeks after inoculation), mice were used for the experiments.

[5] = tested on: hCXCR4 expressing Chem-1 cells; assay: Dual tracer internalization studies with [^125I]FC-131 as internal reference; assay type: cell-based, human
Description: Dual tracer internalization studies using [^125I]FC-131 as internal reference were conducted in hCXCR4 expressing Chem-1 cells in analogy to a previously established protocol. A detailed assay protocol is provided in the supplementary material section.
On the day prior to the experiment, Chem-1 cells were seeded in 24-well-plates at a density of app. 1·10^5 cells per well. On the day of the experiment, the culture medium was removed and the cells were washed once with 250 µL of unsupplemented medium before being left to equilibrate in 200 µL of assay medium (DMEM/F-12 containing 5% BSA) at 37°C for a minimum of 15 min before the experiment. Cells were then coincubated with the respective ^99mTc-labeled compound of interest (0.2 nM) and [^125I]FC-131 (0.2 nM) in the absence (total binding) or presence (non-specific binding) of 100 µM AMD3100 for different time points up to 120 min at 37°C (n=3 wells, respectively, per time point). Incubation was terminated by placing the plate on an ice pack for app. 1 min and by subsequent removal of the incubation medium. Cells were thoroughly rinsed with 250 µL of HBSS. After washing twice with 250 µL of ice cold acid wash buffer (0.02 M NaOAc buffered with AcOH to pH = 5), cells were lysed with 250 µL of 1 N NaOH. The lysate was tranferred to vials and combined with 250 µL of HBSS used for rinsing the wells. Quantification of the amount of free, acid-releasable and internalized ^99mTc- and ^125I-activity was performed using dual isotope protocol on a WIZARD^2® 2480 automatic γ-Counter (Perkin Elmer, Waltham MA, USA).
All data were corrected for non-specific internalization in the presence of […] AMD3100 and were then normalized to the specific internalization observed of the standard radioligand [^125I]FC-131.

SMILES: C[C@@H](NC(=O)[C@@H](CCCNC(=N)N)NC(=O)[C@@H](CN)NC(=O)C(CNCCN)CNCCN)C(=O)Nc1ccc(C(=O)NCCC[C@@H]2C(=O)N[C@@H](CCCNC(=N)N)C(=O)N[C@@H](Cc3ccc4ccccc4c3)C(=O)NCC(=O)N[C@H](Cc3ccc(O)cc3)C(=O)N2C)cc1 [[^99mTc]Tc-N4-L6-CPCR4, [^99mTc]Tc-N4-dap-r-a-Abz-CPCR4, metal not drawn] (cyclo([dY][dNMeOrn]([4Abz-dA-dR-dDap-X1])R[2Nal]G))
- hepatobiliary excretion [1]: no significant hepatobiliary excretion
- half-life ([1]; read-out: plasma half-life, median): 19 min
- half-life ([1]; read-out: plasma half-life, range): 15 to 25 min
- stability in saline and challenging conditions ([2]; diluted with saline, citrate and DTPA, room temperature): progressive decomposition
- percentage of intact tracer ([2]; start): 94.5%
- percentage of intact tracer ([2]; within 2.5 h): 90.6%
- stability in physiological media ([2]; whole blood, serum, human serum albumin (2.5 and 5%), 13 h, room temperature): fully stable
- adverse events ([3]; five patients): no adverse events were recorded
- tolerability ([3]; five patients with hematologic malignancies): well tolerated
- Biodistribution Tumor (tumor accumulation) ([4]; Jurkat xenograft): 8.6 ± 1.3 %iD/g
- Biodistribution Muscle [4]: 0.3 ± 0.05 %iD/g
- Biodistribution Spleen [4]: 5.6 ± 0.8 %iD/g
- internalized activity in % of total cellular activity ([5]; 2 h): 97%
- absolute intracellular tracer accumulation ([5]; 2 h, 37°, 0.2 nM): ~40 % of added dose
- Internalization (% of reference) ([5]; 120 min, normalized to specific internalization of [^125I]FC-131, Chem-1 cells): 694 (120 min) % of reference
- internalization area under the curve (AUC) ([5]; internalization kinetics, Fig. 1): 3799
